Measured values from PubChem BioAssay (NCI).
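Exposure lasted 48 hours, with cells grown in 96-well plates and compounds tested at five concentrations. At the GI50, growth is halved. Definition used: TGI = concentration required for complete inhibition of growth.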

Legend:
Assay in all cases: growth of human tumour cells (NCI), 48 h
NCI/ADR-RES ovarian = test system: NCI/ADR-RES ovarian
UACC-257 melanoma = test system: UACC-257 melanoma
SF-539 CNS = test system: SF-539 CNS
NCI-H23 lung = test system: NCI-H23 lung
TK-10 renal = test system: TK-10 renal
LOX IMVI melanoma = test system: LOX IMVI melanoma
SK-MEL-28 melanoma = test system: SK-MEL-28 melanoma
K-562 leukemia = test system: K-562 leukemia
SF-268 CNS = test system: SF-268 CNS
HCT-116 colon = test system: HCT-116 colon
RXF 393 renal = test system: RXF 393 renal
HCC-2998 colon = test system: HCC-2998 colon
CAKI-1 renal = test system: CAKI-1 renal
MDA-MB-468 breast = test system: MDA-MB-468 breast
EKVX NSCLC = test system: EKVX NSCLC
KM12 colon = test system: KM12 colon
MOLT-4 leukemia = test system: MOLT-4 leukemia
UACC-62 melanoma = test system: UACC-62 melanoma
RPMI-8226 leukemia = test system: RPMI-8226 leukemia
M14 melanoma = test system: M14 melanoma
NCI-H226 lung = test system: NCI-H226 lung
SK-MEL-2 melanoma = test system: SK-MEL-2 melanoma
NCI-H460 lung = test system: NCI-H460 lung
OVCAR-3 ovarian = test system: OVCAR-3 ovarian
HL-60(TB) leukemia = test system: HL-60(TB) leukemia
SK-OV-3 ovarian = test system: SK-OV-3 ovarian
A498 renal = test system: A498 renal
MCF7 breast = test system: MCF7 breast
OVCAR-4 ovarian = test system: OVCAR-4 ovarian
HCT-15 colon = test system: HCT-15 colon
A549 NSCLC = test system: A549 NSCLC
HOP-92 NSCLC = test system: HOP-92 NSCLC
MDA-MB-231 breast = test system: MDA-MB-231 breast
U251 CNS = test system: U251 CNS
SNB-19 CNS = test system: SNB-19 CNS
IGROV1 ovarian = test system: IGROV1 ovarian
PC-3 prostate = test system: PC-3 prostate
MDA-MB-435 = test system: MDA-MB-435
SF-295 CNS = test system: SF-295 CNS
COLO 205 colon = test system: COLO 205 colon
SR leukemia = test system: SR leukemia
T-47D breast = test system: T-47D breast
HS 578T breast = test system: HS 578T breast
786-0 renal = test system: 786-0 renal
CCRF-CEM leukemia = test system: CCRF-CEM leukemia
UO-31 renal = test system: UO-31 renal
HOP-62 NSCLC = test system: HOP-62 NSCLC
SNB-75 CNS = test system: SNB-75 CNS
SW-620 colon = test system: SW-620 colon
BT-549 breast = test system: BT-549 breast
ACHN renal = test system: ACHN renal
SN12C renal = test system: SN12C renal
SK-MEL-5 melanoma = test system: SK-MEL-5 melanoma
NCI-H522 lung = test system: NCI-H522 lung
MALME-3M melanoma = test system: MALME-3M melanoma
HT29 colon = test system: HT29 colon
OVCAR-8 ovarian = test system: OVCAR-8 ovarian
DU-145 prostate = test system: DU-145 prostate
OVCAR-5 ovarian = test system: OVCAR-5 ovarian

## COc1ccc(-c2cc(-c3cc(C(C)C)c(O)cc3C)nn2-c2ccc(S(N)(=O)=O)cc2)cc1
NCI/ADR-RES ovarian
  GI50: 3.06 µM
  TGI: 11.4 µM
UACC-257 melanoma
  GI50: 12.7 µM
  TGI: 25.7 µM
SF-539 CNS
  GI50: 3.63 µM
  TGI: 13.3 µM
NCI-H23 lung
  GI50: 10.5 µM
  TGI: 23 µM
TK-10 renal
  GI50: 15 µM
  TGI: 28.4 µM
LOX IMVI melanoma
  GI50: 5.47 µM
  TGI: 18.1 µM
SK-MEL-28 melanoma
  GI50: 13 µM
  TGI: 25.7 µM
K-562 leukemia
  GI50: 2.82 µM
  TGI: 18 µM
SF-268 CNS
  GI50: 12.9 µM
  TGI: 28.6 µM
HCT-116 colon
  GI50: 6.17 µM
  TGI: 21.3 µM
RXF 393 renal
  GI50: 5.76 µM
  TGI: 20.7 µM
HCC-2998 colon
  GI50: 11.4 µM
  TGI: 23.6 µM
CAKI-1 renal
  GI50: 5.59 µM
  TGI: 19.2 µM
MDA-MB-468 breast
  GI50: 2.07 µM
  TGI: 5.71 µM
EKVX NSCLC
  GI50: 10.3 µM
  TGI: 21.9 µM
KM12 colon
  GI50: 3.76 µM
  TGI: 14.6 µM
MOLT-4 leukemia
  GI50: 2.88 µM
  TGI: 8.39 µM
UACC-62 melanoma
  GI50: 10.2 µM
  TGI: 22.1 µM
RPMI-8226 leukemia
  GI50: 4.83 µM
  TGI: 32.8 µM
M14 melanoma
  GI50: 11.3 µM
  TGI: 25.1 µM
NCI-H226 lung
  GI50: 16.8 µM
  TGI: 38.8 µM
SK-MEL-2 melanoma
  GI50: 13.7 µM
  TGI: 26.9 µM
NCI-H460 lung
  GI50: 8.42 µM
  TGI: 22 µM
OVCAR-3 ovarian
  GI50: 5.16 µM
  TGI: 17 µM
HL-60(TB) leukemia
  GI50: 3.53 µM
  TGI: 19.8 µM
SK-OV-3 ovarian
  GI50: 13.8 µM
  TGI: 27.3 µM
A498 renal
  GI50: 13.9 µM
  TGI: 27.8 µM
MCF7 breast
  GI50: 4.89 µM
  TGI: 20 µM
OVCAR-4 ovarian
  GI50: 13.6 µM
  TGI: 31 µM
HCT-15 colon
  GI50: 3.69 µM
  TGI: 14.5 µM
A549 NSCLC
  GI50: 6.2 µM
  TGI: 20.6 µM
HOP-92 NSCLC
  GI50: 7.18 µM
  TGI: 21.5 µM
MDA-MB-231 breast
  GI50: 7.99 µM
  TGI: 21 µM
U251 CNS
  GI50: 4.49 µM
  TGI: 16.5 µM
SNB-19 CNS
  GI50: 12.5 µM
  TGI: 25 µM
IGROV1 ovarian
  GI50: 13.4 µM
  TGI: 26.5 µM
PC-3 prostate
  GI50: 10.3 µM
  TGI: 24.7 µM
MDA-MB-435
  GI50: 2.22 µM
  TGI: 4.84 µM
SF-295 CNS
  GI50: 10.9 µM
  TGI: 22.8 µM
COLO 205 colon
  GI50: 18.7 µM
  TGI: 34.1 µM
SR leukemia
  GI50: 1.91 µM
  TGI: 15.1 µM
T-47D breast
  GI50: 4.32 µM
  TGI: 21.3 µM
HS 578T breast
  GI50: 11.9 µM
  TGI: 38.6 µM
786-0 renal
  GI50: 12.2 µM
  TGI: 25 µM
CCRF-CEM leukemia
  GI50: 3.43 µM
  TGI: 26.3 µM
UO-31 renal
  GI50: 7.83 µM
  TGI: 20.6 µM
HOP-62 NSCLC
  GI50: 10.7 µM
  TGI: 23.9 µM
SNB-75 CNS
  GI50: 6.08 µM
  TGI: 18.6 µM
SW-620 colon
  GI50: 6.44 µM
  TGI: 20.4 µM
BT-549 breast
  GI50: 3.29 µM
  TGI: 13.2 µM
ACHN renal
  GI50: 11.7 µM
  TGI: 23.9 µM
SN12C renal
  GI50: 12 µM
  TGI: 25.1 µM
SK-MEL-5 melanoma
  GI50: 11.1 µM
  TGI: 23.3 µM
NCI-H522 lung
  GI50: 3.15 µM
  TGI: 13.7 µM
MALME-3M melanoma
  GI50: 11.8 µM
  TGI: 24.3 µM
HT29 colon
  GI50: 16.2 µM
  TGI: 30.2 µM
OVCAR-8 ovarian
  GI50: 8.17 µM
  TGI: 23.2 µM
DU-145 prostate
  GI50: 7.31 µM
  TGI: 19.8 µM
OVCAR-5 ovarian
  GI50: 16.3 µM
  TGI: 29.8 µM

## CCC(C)S(=O)(=O)c1oc(-c2ccc(C)cc2)nc1S(=O)(=O)c1ccccc1 (stereo unspecified)
NCI/ADR-RES ovarian
  GI50: 2.35 µM
  TGI: 5.7 µM
UACC-257 melanoma
  GI50: 1.89 µM
  TGI: 4.24 µM
SF-539 CNS
  GI50: 1.67 µM
  TGI: 3.03 µM
NCI-H23 lung
  GI50: 1.76 µM
  TGI: 3.55 µM
TK-10 renal
  GI50: 1.73 µM
  TGI: 3.44 µM
LOX IMVI melanoma
  GI50: 1.23 µM
  TGI: 2.58 µM
SK-MEL-28 melanoma
  GI50: 1.71 µM
  TGI: 3.14 µM
K-562 leukemia
  GI50: 1.38 µM
  TGI: > 100 µM
SF-268 CNS
  GI50: 2.65 µM
  TGI: 8.81 µM
HCT-116 colon
  GI50: 1.52 µM
  TGI: 3.62 µM
RXF 393 renal
  GI50: 1.48 µM
  TGI: 3.1 µM
HCC-2998 colon
  GI50: 1.74 µM
  TGI: 3.3 µM
CAKI-1 renal
  GI50: 1.53 µM
  TGI: 3.15 µM
MDA-MB-468 breast
  GI50: 1.43 µM
  TGI: 2.99 µM
EKVX NSCLC
  GI50: 1.98 µM
  TGI: 4.21 µM
KM12 colon
  GI50: 8.37 µM
  TGI: 23.4 µM
MOLT-4 leukemia
  GI50: 1.45 µM
  TGI: > 100 µM
UACC-62 melanoma
  GI50: 1.76 µM
  TGI: 3.75 µM
RPMI-8226 leukemia
  GI50: 2.16 µM
  TGI: 8.17 µM
M14 melanoma
  GI50: 1.73 µM
  TGI: 3.83 µM
NCI-H226 lung
  GI50: 12.5 µM
  TGI: 30.5 µM
SK-MEL-2 melanoma
  GI50: 4.1 µM
  TGI: 16.2 µM
NCI-H460 lung
  GI50: 3.13 µM
  TGI: 12.1 µM
OVCAR-3 ovarian
  GI50: 1.63 µM
  TGI: 3.23 µM
HL-60(TB) leukemia
  GI50: 1.6 µM
  TGI: 4.91 µM
SK-OV-3 ovarian
  GI50: 17.2 µM
  TGI: 33.3 µM
A498 renal
  GI50: 16.9 µM
  TGI: 30.7 µM
MCF7 breast
  GI50: 1.2 µM
  TGI: 2.86 µM
OVCAR-4 ovarian
  GI50: 2.67 µM
  TGI: 7.84 µM
HCT-15 colon
  GI50: 1.45 µM
  TGI: 3.18 µM
A549 NSCLC
  GI50: 13.5 µM
  TGI: 32.3 µM
HOP-92 NSCLC
  GI50: 2.27 µM
  TGI: 6.37 µM
MDA-MB-231 breast
  GI50: 1.66 µM
  TGI: 3.15 µM
U251 CNS
  GI50: 15.5 µM
  TGI: 31.2 µM
SNB-19 CNS
  GI50: 12.9 µM
  TGI: 25.5 µM
IGROV1 ovarian
  GI50: 1.96 µM
  TGI: 3.75 µM
PC-3 prostate
  GI50: 3.14 µM
  TGI: 11.2 µM
MDA-MB-435
  GI50: 1.74 µM
  TGI: 3.85 µM
SF-295 CNS
  GI50: 11.3 µM
  TGI: 23.4 µM
COLO 205 colon
  GI50: 2.67 µM
  TGI: 6.02 µM
SR leukemia
  GI50: 2.73 µM
  TGI: > 100 µM
T-47D breast
  GI50: 1.87 µM
  TGI: 4.41 µM
HS 578T breast
  GI50: 2.18 µM
  TGI: 7.36 µM
786-0 renal
  GI50: 1.67 µM
  TGI: 3.37 µM
CCRF-CEM leukemia
  GI50: 0.287 µM
  TGI: 1.33 µM
UO-31 renal
  GI50: 1.52 µM
  TGI: 2.85 µM
HOP-62 NSCLC
  GI50: 15.8 µM
  TGI: 33.2 µM
SNB-75 CNS
  GI50: 3.86 µM
  TGI: 17 µM
SW-620 colon
  GI50: 1.13 µM
  TGI: 2.47 µM
BT-549 breast
  GI50: 1.81 µM
  TGI: 3.42 µM
ACHN renal
  GI50: 1.65 µM
  TGI: 3.01 µM
SN12C renal
  GI50: 1.72 µM
  TGI: 3.34 µM
SK-MEL-5 melanoma
  GI50: 2.99 µM
  TGI: 11.6 µM
NCI-H522 lung
  GI50: 1.31 µM
  TGI: 2.77 µM
MALME-3M melanoma
  GI50: 1.65 µM
  TGI: 3.03 µM
HT29 colon
  GI50: 2.04 µM
  TGI: 4.86 µM
OVCAR-8 ovarian
  GI50: 3.09 µM
  TGI: 10.7 µM
DU-145 prostate
  GI50: 1.98 µM
  TGI: 4.57 µM
OVCAR-5 ovarian
  GI50: 2.83 µM
  TGI: 9.59 µM
